Results on four molecules are retold here after DBAASP.

Test systems include Acinetobacter sp.; Escherichia coli; Colletotrichum sp.; Aspergillus ochraceus; Fulvia fulva; Aspergillus niger; Alternaria sp.; Fusarium oxysporum.
Common to all, as to experiment: ≥ marks a high value that may be exact or a test limit, other limits are often not marked, values filed in µg/mL are converted to µM
Test [1] concerns Escherichia coli ATCC 11775.
For test [2], the system named is Staphylococcus aureus ATCC 9144.
The subject of test [3] is Bacillus subtilis ATCC 6633.
Test [4] concerns Pseudomonas aeruginosa ATCC 25668.
For test [5], the system named is Staphylococcus aureus ATCC 25325.
Test [6] relates to Escherichia coli ATCC 35218.
In test [7] the test system is Pseudomonas aeruginosa ATCC 27853.
Test [8] relates to Bacillus subtilis ATCC 9372.
For test [9], the system named is Bacillus anthracis Sterne 34F2.
For test [10], the system named is Burkholderia thailandensis.
Test [11] concerns Staphylococcus sp. BCRC 10451.
Test [12] relates to Micrococcus luteus BCRC 11034.
The subject of test [13] is Streptococcus pneumoniae BCRC 10794.
For test [14], the system named is Staphylococcus aureus BCRC 10780.

In brackets after ≈: the same amount, converted by molar mass.

Consider `CC[C@H](C)[C@H](N)C(=O)N[C@@H](CCCCN)C(=O)N[C@@H](Cc1c[nH]c2ccccc12)C(=O)N[C@@H](C)C(=O)NCC(=O)N[C@@H](CCCCN)C(=O)N[C@@H](CC(C)C)C(=O)N[C@@H](Cc1ccccc1)C(=O)N[C@@H](CCCCN)C(=O)N[C@@H](CC(C)C)C(=O)N[C@@H](Cc1ccccc1)C(=O)N[C@@H](CCCCN)C(N)=O` [IKWAGKLFKLFK], for which the MIC in test [1] is 0.676 µM (≈ 0.999 µg/mL); in [2], 2.7 µM (≈ 4 µg/mL); in test [3], 5.41 µM (≈ 7.99 µg/mL); in test [4] it was 5.41 µM (≈ 7.99 µg/mL); in the test on Acinetobacter sp. it was 21.6 µM (≈ 32 µg/mL); against Escherichia coli, 2.7 µM (≈ 4 µg/mL).

Regarding `CC(C)C[C@H](NC(=O)[C@H](Cc1ccc(O)cc1)NC(=O)[C@H](Cc1cnc[nH]1)NC(=O)[C@@H](NC(=O)[C@H](CC(C)C)NC(=O)[C@H](C)NC(=O)[C@H](C)NC(=O)[C@H](CCCCN)NC(=O)CNC(=O)[C@@H](NC(=O)[C@H](Cc1cnc[nH]1)NC(=O)[C@@H](N)CCCCN)C(C)C)[C@@H](C)O)C(=O)O` [KHVGKAALTHYL], the MIC is 2.33 µM (≈ 3.12 µg/mL) against Colletotrichum sp.; not below 37.4 µM in the test on Aspergillus ochraceus; 4.6 µM (≈ 6.15 µg/mL) in test [5]; 4 µM (≈ 5.35 µg/mL) in [6]; 9.35 µM (≈ 12.5 µg/mL) with Fulvia fulva; 9.1 µM (≈ 12.2 µg/mL) in test [7]. The MIC worked out at 4.67 µM (≈ 6.25 µg/mL) in the test with Aspergillus niger, 4.67 µM (≈ 6.25 µg/mL) with Alternaria sp. and 2.33 µM (≈ 3.12 µg/mL) against Fusarium oxysporum.

On to `CC[C@H](C)[C@H](NC(=O)[C@H](Cc1cnc[nH]1)NC(=O)[C@H](CCCCN)NC(=O)[C@@H](NC(=O)[C@@H](NC(=O)[C@H](CC(=O)O)NC(=O)[C@H](Cc1ccccc1)NC(=O)[C@H](Cc1c[nH]c2ccccc12)NC(=O)CN)C(C)C)C(C)C)C(=O)N[C@@H](C)C(=O)N[C@@H](CO)C(=O)N[C@@H](C)C(=O)N[C@H](C(=O)O)C(C)C` [GWFDVVKHIASAV], for which the MIC is not below 100 µM in test [8], not below 100 µM in test [9] and not below 50 µM in test [10].

As to `CC[C@H](C)[C@H](NC(=O)[C@H](CCCCN)NC(=O)[C@@H]1CCCN1C(=O)[C@@H](NC(=O)[C@H](CC(C)C)NC(=O)[C@H](C)NC(=O)[C@H](Cc1ccccc1)NC(=O)[C@H](Cc1ccccc1)NC(=O)CNC(C)=O)[C@@H](C)CC)C(=O)N[C@H](C(=O)N[C@@H](CO)C(=O)N[C@@H](CO)C(=O)N1CCC[C@H]1C(=O)N[C@@H](CC(C)C)C(=O)N[C@@H](Cc1ccccc1)C(=O)N[C@@H](CCCCN)C(=O)N[C@H](C(=O)N[C@@H](CC(C)C)C(=O)N[C@@H](CC(C)C)C(=O)N[C@@H](CO)C(=O)N[C@@H](C)C(N)=O)[C@@H](C)O)[C@@H](C)CC` [GFFALIPKIISSPLFKTLLSA], the MIC in test [11] is 5.52 µM (≈ 12.7 µg/mL); in test [12], not below 44.2 µM; in test [13], not below 44.2 µM; in test [14], not below 44.2 µM.
